The data set is described as follows: Pharmacokinetics of curcumin and THC in plasma during and after liposomal curcumin infusion. The conditions noted are these: for AUC(0-t): read-out: AUC0-Tlast. Format: in vivo, human. The procedure: Patient #21 was excluded from the PK analysis because the infusion was interrupted for 1.5 h.
Pharmacokinetic assessments. […] Samples for infusion #1 were collected at baseline (BL), 2 h after start of infusion and after end of infusion at 0 min=EOI, 10 min, 20 min, 30 min, 45 min, 60 min and 120 min and at EOI for infusions #2, #3, #5 and #8. […] The number of blood collections remained unchanged.

Setting [1] is: plasma THC, first liposomal curcumin infusion, DL 3: 150 mg/m^2, 8 h infusion, patient 17.
[2] abbreviates: plasma THC, first liposomal curcumin infusion, DL 4: 190 mg/m^2, 8 h infusion, Mean, patient #19 not included.
Where [3] appears, read: plasma THC, first liposomal curcumin infusion, DL 4: 190 mg/m^2, 8 h infusion, individual patients.
The mark [4] stands for this setting: plasma THC, first liposomal curcumin infusion, DL 6: 300 mg/m^2, 8 h infusion, Mean.
Setting [5] is: plasma THC, first liposomal curcumin infusion, DL 6a: 300 mg/m^2, 6 h infusion, Mean.
Where [6] appears, read: plasma THC, first liposomal curcumin infusion, DL 6a: 300 mg/m^2, 6 h infusion, individual patients.

Here are results for two compounds from patent publication US12551436B2, “Dosing regimens for treatment of proliferative disorders” (priority 2018, dated 2026).

Values joined by “and” are separate entries in the source; they are usually repeats but may differ in a detail not shown here. Identical values can stand only once. Like-named read-outs stand apart in the source and are kept apart here.

Regarding `COc1cc(CCC(=O)CC(=O)CCc2ccc(O)c(OC)c2)ccc1O` [tetrahydrocurcumin], for the setting “DL 1-DL 3 (100 to 150 mg/m^2), patients with only one blood collection during infusion, most samples”, the plasma samples entry is “below the limit of quantification”. For the same compound, the AUC(0-t) runs as follows: (human, in vivo, 150 mg/m^2, plasma THC, first liposomal curcumin infusion, DL 3: 150 mg/m^2, 8 h infusion, patient 17) 59 ng·h/mL; (human, in vivo, 190 mg/m^2, plasma THC, first liposomal curcumin infusion, DL 4: 190 mg/m^2, 8 h infusion, Mean, patient #19 not included) 27 ng·h/mL; (human, in vivo, 300 mg/m^2, plasma THC, first liposomal curcumin infusion, DL 6: 300 mg/m^2, 8 h infusion, Mean) 344 ng·h/mL; (human, in vivo, 300 mg/m^2, plasma THC, first liposomal curcumin infusion, DL 6a: 300 mg/m^2, 6 h infusion, Mean) 326 ng·h/mL. Moreover, the Cmax by setting is: (human, in vivo, 150 mg/m^2, plasma THC, first liposomal curcumin infusion, DL 3: 150 mg/m^2, 8 h infusion, patient 17, read-out: Cmax) 16.1 ng/mL; (human, in vivo, 190 mg/m^2, plasma THC, first liposomal curcumin infusion, DL 4: 190 mg/m^2, 8 h infusion, Mean, patient #19 not included, read-out: Cmax) 7.2 ng/mL; (human, in vivo, 300 mg/m^2, plasma THC, first liposomal curcumin infusion, DL 6: 300 mg/m^2, 8 h infusion, Mean, read-out: Cmax) 74.4 ng/mL; (human, in vivo, 300 mg/m^2, plasma THC, first liposomal curcumin infusion, DL 6a: 300 mg/m^2, 6 h infusion, Mean, read-out: Cmax) 70.3 ng/mL; under setting [3], 7.7 ng/mL and 396.1 ng/mL and 6.6 ng/mL; under setting [6], 110.4 ng/mL and 35.1 ng/mL and 80.1 ng/mL and 67.6 ng/mL and 70.7 ng/mL and 58.3 ng/mL. The time of peak concentration (Tmax) runs as follows: (human, in vivo, 150 mg/m^2, plasma THC, first liposomal curcumin infusion, DL 3: 150 mg/m^2, 8 h infusion, patient 17, read-out: Tmax) 4 h; (human, in vivo, 190 mg/m^2, plasma THC, first liposomal curcumin infusion, DL 4: 190 mg/m^2, 8 h infusion, Mean, patient #19 not included, read-out: Tmax) 5 h; (human, in vivo, 300 mg/m^2, plasma THC, first liposomal curcumin infusion, DL 6: 300 mg/m^2, 8 h infusion, Mean, read-out: Tmax) 2.5 h; (human, in vivo, 300 mg/m^2, plasma THC, first liposomal curcumin infusion, DL 6a: 300 mg/m^2, 6 h infusion, Mean, read-out: Tmax) 3.7 h; under setting [3], 8.1 h and 6.0 h; under setting [6], 2.0 h and 5.9 h and 5.8 h. Also, the “AUC0-TLast of THC as percentage of curcumin” value was 8.5% (mean across individual patients) and 2.1%-21.8% (range across individual patients). In addition, the Clast under setting [1] worked out at 10.3 ng/mL; the Clast under setting [2] was found to be 7.2 ng/mL; the Clast under setting [3] was 7.7 ng/mL and 11.8 ng/mL and 6.6 ng/mL; the Clast under setting [4] is on record as 21.8 ng/mL; the Clast under setting [5] amounted to 6.2 ng/mL; the Clast under setting [6] was 6.9 ng/mL and 5.2 ng/mL (2×) and 6.0 ng/mL and 8.4 ng/mL and 5.7 ng/mL. Moreover, the Tlast reads like this: under setting [1], 6.0 h; under setting [2], 5.0 h; under setting [3], 4.0 h and 8.8 h and 6.0 h; under setting [4], 7.7 h; under setting [5], 6.6 h; under setting [6], 6.8 h (2×) and 7.3 h and 6.0 h and 6.6 h and 6.2 h. For the same compound, the AUC0-Tlast by setting is: under setting [3], 22 ng·h/mL and 1656 ng·h/mL and 31 ng·h/mL; under setting [6], 497 ng·h/mL and 155 ng·h/mL and 385 ng·h/mL and 332 ng·h/mL and 321 ng·h/mL and 264 ng·h/mL.
`COc1cc(/C=C/C(=O)CC(=O)/C=C/c2ccc(O)c(OC)c2)ccc1O` [Curcumin, (1E6E)-1,7-bis(4 hydroxy-3-methoxyphenyl)-1,6-heptadiene-3,5 dione]: under “human, in vivo, 240 mg/m^2, plasma curcumin, first liposomal curcumin infusion, DL 5: 240 mg/m^2 8 h infusion, Mean, read-out: Cmax”, the Cmax worked out at 647 ng/mL. In addition, under “human, in vivo, mean Tmax for curcumin”, the time of peak concentration (Tmax) lay in the range of 3.6 to 4 h.

One may read the Cmax as the maximum level reached in the sampled fluid or tissue. One may read the Tmax as the time from dosing to the highest level.
